Experimental data reported in PMC11879040, “Advancing systemic toxicity risk assessment: Evaluation of a NAM-based toolbox approach” (Toxicological Sciences, 2024).
Like-named read-outs stand apart in the source and are kept apart here.

Legend:
MCF7 cells = assay: High-throughput transcriptomics (HTTr, TempO-Seq), MCF7, 24 h; assay type: cell-based, human; details: MCF-7; for pod_httr_bifrost PoD: HTTr BIFROST PoD; for podl_path_minbmd PoD: HTTr minimum pathway BMD(L)
Description: (§1) HepG2, HepaRG, and MCF7 cells were treated with each compound for 24 h across a dose range of 7 concentrations and lysed using TempO-Seq lysis buffer (BioSpyder Technologies, proprietary kit, see [Middleton et al. 2022] for method details). Sequencing was performed using TempO-Seq (BioClavis) version 2 of the human whole transcriptome panel and analyzed as described previously in Middleton et al.

[1] = system: 63 targets with known safety liabilities; assay: In vitro pharmacological profiling (IPP) panel, screening at 10 or 100 µM and dose response, minimum IC50/AC50; assay type: biochemical; details: lowest AC50 across IPP panel (systemic targets); cell_type -; read-out: ipp_lowest_ac50_systemic PoD
[2] = system: Potassium Voltage-Gated Channel Kv non-selective, KCNQ1 (r); assay: IPP KCNQ1 binding (antagonist radioligand); set-up: species or system rat; details: control α-dendrotoxin
Tubulin (r) = assay: IPP Tubulin binding; set-up: species or system rat; details: ligand/control Colchicine
HepaRG cells = assay: High-throughput transcriptomics (HTTr, TempO-Seq), HepaRG, 24 h; assay type: cell-based, human; details: HepaRG; for pod_httr_bifrost PoD: HTTr BIFROST PoD; for podl_path_minbmd PoD: HTTr minimum pathway BMD(L)
Description: as §1

[3] = PBK level L2; taken or scaled from references (median where several); ref [6],[7],[10],[19]; cited from earlier work
[4] = biological target: T1, Adenosine receptor A2a, ADORA2A (h) (Homo sapiens, UniProt P29274); assay: IPP ADORA2A binding (agonist radioligand); details: control NECA
T1 construct: purchased Eurofins Cerep (SafetyScreen44-based IPP panel)
T1 sequence (P29274 whole entry): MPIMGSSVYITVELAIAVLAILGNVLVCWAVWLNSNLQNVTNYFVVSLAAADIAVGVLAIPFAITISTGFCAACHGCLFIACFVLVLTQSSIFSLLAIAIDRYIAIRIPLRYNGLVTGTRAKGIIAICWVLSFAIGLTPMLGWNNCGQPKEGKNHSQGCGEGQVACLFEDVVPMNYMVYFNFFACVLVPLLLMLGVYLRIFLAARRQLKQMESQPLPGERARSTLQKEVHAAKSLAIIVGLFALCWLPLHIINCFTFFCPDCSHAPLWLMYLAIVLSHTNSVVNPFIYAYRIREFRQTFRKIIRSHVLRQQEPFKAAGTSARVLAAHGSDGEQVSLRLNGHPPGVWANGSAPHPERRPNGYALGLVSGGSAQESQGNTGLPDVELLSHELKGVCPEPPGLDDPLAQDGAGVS

[5] = system: Gamma-aminobutyric acid receptor subunit alpha-1 BZD site, GABRA1A (r); assay type: binding, rat; details: control diazepam
[6] = system: Thyroid hormone receptor alpha, THRA (h); assay: IPP THRA coactivator recruitment (agonist); assay type: biochemical, human; details: agonist, T3
[7] = system: Sodium channel protein type 5 subunit alpha (site 2), SCN5A (r); assay type: binding, rat
[8] = PBK level L2; single value or median; ref [2],[4],[6],[7],[8],[10],[11],[15],[18],[27],[34]; cited from earlier work
[9] = biological target: Voltage-dependent L-type Ca2+ channel (dihydropyridine site), CACNA1C (r) (Rattus norvegicus, UniProt P22002); assay type: binding
Sequence of Voltage-dependent L-type Ca2+ channel (dihydropyridine site), CACNA1C (r) (P22002 whole entry): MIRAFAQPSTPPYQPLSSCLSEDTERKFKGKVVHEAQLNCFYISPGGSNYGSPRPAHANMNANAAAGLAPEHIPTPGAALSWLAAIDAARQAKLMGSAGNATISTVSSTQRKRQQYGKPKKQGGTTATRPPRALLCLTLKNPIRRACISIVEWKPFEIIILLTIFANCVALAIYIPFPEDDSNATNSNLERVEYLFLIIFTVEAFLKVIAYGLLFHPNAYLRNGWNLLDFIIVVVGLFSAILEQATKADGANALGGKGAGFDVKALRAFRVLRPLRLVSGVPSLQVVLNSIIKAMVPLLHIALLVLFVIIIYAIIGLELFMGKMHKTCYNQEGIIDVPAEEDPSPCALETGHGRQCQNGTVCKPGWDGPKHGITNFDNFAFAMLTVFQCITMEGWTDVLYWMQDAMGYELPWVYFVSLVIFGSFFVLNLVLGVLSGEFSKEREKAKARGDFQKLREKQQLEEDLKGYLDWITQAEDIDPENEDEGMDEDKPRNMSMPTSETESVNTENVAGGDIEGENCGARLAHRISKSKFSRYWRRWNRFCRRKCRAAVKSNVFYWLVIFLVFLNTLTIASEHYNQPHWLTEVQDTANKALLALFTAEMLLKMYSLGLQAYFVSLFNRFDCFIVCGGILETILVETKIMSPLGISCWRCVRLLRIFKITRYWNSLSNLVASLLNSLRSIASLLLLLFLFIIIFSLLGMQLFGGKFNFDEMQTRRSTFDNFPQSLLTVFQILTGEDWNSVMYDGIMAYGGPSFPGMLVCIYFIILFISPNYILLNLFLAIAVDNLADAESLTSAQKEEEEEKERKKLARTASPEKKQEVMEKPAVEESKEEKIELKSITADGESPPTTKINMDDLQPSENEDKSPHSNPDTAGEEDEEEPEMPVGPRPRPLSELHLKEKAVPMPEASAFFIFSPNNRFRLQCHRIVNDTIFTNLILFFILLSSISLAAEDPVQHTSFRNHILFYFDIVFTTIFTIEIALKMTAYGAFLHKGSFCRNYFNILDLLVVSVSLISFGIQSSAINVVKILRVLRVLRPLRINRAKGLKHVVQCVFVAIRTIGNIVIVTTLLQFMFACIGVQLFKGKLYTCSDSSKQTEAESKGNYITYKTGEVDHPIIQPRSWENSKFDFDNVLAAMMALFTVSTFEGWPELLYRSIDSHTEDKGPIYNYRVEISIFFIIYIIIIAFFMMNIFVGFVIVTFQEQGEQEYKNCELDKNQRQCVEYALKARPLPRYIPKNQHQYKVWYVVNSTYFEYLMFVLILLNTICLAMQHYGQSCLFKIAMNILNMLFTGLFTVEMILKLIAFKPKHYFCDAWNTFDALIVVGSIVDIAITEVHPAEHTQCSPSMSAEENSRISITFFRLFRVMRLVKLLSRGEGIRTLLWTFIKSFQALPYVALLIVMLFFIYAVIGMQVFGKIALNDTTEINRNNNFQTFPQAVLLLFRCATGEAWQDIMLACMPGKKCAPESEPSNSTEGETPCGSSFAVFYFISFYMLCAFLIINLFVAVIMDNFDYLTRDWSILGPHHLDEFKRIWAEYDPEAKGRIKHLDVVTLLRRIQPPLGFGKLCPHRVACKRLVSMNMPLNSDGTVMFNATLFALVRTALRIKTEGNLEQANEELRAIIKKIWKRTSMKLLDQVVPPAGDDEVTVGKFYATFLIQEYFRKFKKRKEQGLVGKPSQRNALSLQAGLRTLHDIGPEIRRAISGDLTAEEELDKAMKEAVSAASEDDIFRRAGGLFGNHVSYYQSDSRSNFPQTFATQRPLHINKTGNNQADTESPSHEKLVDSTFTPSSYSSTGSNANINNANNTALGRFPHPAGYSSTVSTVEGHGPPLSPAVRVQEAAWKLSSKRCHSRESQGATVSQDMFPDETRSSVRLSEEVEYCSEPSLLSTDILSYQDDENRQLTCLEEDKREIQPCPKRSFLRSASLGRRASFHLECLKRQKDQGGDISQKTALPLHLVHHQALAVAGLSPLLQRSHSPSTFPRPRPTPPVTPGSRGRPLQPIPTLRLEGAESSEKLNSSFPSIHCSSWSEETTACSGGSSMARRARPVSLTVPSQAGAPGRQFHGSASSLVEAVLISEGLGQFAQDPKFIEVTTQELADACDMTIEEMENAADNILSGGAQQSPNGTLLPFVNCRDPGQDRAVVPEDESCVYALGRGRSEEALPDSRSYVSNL

HepG2 cells [10] = assay: Cell stress panel (CSP), 24 h, 8 concentrations, BIFROST global PoD; assay type: cell-based; details: HepG2; cell stress panel PoD
Description: Compounds were tested using the previously developed cell stress panel ([Hatherell et al. 2020]) and the expanded biomarker panel outlined in Middleton et al. HepG2 cells were treated with all compounds for 24 h across 8 concentrations prior to biomarker analysis. The same plate layout and number of replicates (3 biological and 2 technical) were used as previously for each assay within the panel.

[11] = Assignment of risk classifications to benchmark chemical-exposure scenarios; details: for risk: from table S1
human = details: of the 218 adverse event reports identified by Moore et al; ref [9]; cited from earlier work
HepG2 cells [12] = assay: High-throughput transcriptomics (HTTr, TempO-Seq), HepG2, 24 h; assay type: cell-based, human; details: HepG2; for pod_httr_bifrost PoD: HTTr BIFROST PoD; for podl_path_minbmd PoD: HTTr minimum pathway BMD(L)
Description: as §1

[13] = system: Glutamate receptor ionotropic NMDA 1 non-selective, GRIN1 (r); details: control CGS 19755
[14] = biological target: Potassium voltage-gated channel subfamily H member 2 hERG, KCNH2 (h) (Homo sapiens, UniProt Q12809); details: 10 uM; [3H] Dofetilide; control Terfenadine
Sequence of Potassium voltage-gated channel subfamily H member 2 hERG, KCNH2 (h) (Q12809 whole entry): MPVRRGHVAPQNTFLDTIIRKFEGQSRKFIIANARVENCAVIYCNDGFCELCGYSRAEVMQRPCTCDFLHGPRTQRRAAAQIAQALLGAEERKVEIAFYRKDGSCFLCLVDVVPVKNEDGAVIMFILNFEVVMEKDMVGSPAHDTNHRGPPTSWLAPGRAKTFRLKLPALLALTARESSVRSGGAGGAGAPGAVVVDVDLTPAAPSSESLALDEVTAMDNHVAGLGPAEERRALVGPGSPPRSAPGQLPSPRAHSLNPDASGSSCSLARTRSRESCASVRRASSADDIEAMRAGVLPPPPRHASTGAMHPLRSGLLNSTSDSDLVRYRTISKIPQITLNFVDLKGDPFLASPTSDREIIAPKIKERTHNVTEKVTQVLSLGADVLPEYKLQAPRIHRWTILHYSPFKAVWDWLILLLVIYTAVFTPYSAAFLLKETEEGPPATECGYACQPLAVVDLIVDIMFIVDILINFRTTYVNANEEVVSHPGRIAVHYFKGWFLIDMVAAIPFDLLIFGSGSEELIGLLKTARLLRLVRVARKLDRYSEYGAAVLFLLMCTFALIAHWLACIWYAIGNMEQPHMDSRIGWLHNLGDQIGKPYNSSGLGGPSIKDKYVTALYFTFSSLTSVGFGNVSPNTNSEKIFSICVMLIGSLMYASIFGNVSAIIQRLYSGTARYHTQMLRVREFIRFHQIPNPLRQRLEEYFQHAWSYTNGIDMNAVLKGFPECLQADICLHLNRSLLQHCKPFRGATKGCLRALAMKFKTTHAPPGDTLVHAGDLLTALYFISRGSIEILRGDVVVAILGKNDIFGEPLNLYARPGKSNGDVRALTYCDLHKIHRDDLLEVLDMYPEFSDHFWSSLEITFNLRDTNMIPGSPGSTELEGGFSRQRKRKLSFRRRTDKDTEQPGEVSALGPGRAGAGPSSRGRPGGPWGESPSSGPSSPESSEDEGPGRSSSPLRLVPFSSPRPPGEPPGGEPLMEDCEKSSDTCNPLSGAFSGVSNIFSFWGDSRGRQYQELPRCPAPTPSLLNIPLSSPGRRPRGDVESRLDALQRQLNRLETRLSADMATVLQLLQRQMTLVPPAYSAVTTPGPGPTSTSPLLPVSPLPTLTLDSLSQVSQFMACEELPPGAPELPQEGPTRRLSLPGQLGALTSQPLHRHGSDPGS

dog = details: 52 weeks, ref ToxRefDB/Paul-Friedman et al. (2020)/regulatory opinions; cited from earlier work
[15] = human
[16] = fasted, cited from earlier work
[17] = unbound fraction in plasma (fup); details: PBK input, level L2; [2] internal data (unpublished)
[18] = PBK input, levels L2/L3; at the pH in column Solubility pH; ref [11]; cited from earlier work
[19] = 100 uM, * denotes assay interference (2-Amino-6-chloro-4-nitrophenol, HC Red 3)
[20] = Oral tablet 1.25 mg, 15 male 14 female, calibration, ref Devineni et al. 2015
[21] = Oral tablet 1.75 mg, healthy 10 male 10 female, validation, ref Graefe-Mody et al. 2011
[22] = Oral tablet 2.5 mg, validation, ref Matsuda et al. 1983
[23] = Oral tablet 5 mg, 9 male, validation, ref Sartor et al. 1980

Structure (SMILES)	pod_httr_bifrost PoD (MCF7 cells) [µM]	podl_path_minbmd PoD (MCF7 cells) [µM]	AC50 [1] [µM]	Specific binding ([2]; IPP screening at 100 uM) [%]	IPP screening %, Specific binding (Tubulin (r); 100 uM) [%]	pod_httr_bifrost PoD (HepaRG cells) [µM]	podl_path_minbmd PoD (HepaRG cells) [µM]	Intrinsic Liver Clearance [3] [L/h]	Specific binding ([4]; IPP screening at 100 uM) [%]	Specific binding ([5]; IPP screening at 100 uM) [%]	IPP screening %, Coactivator recruitment [6, 19] [%]	Specific binding [7] [%]	Fup [8] [%]	Specific binding [9] [%]	pod_cell_stress PoD (HepG2 cells [10]) [µM]	pod_httr_bifrost PoD (HepG2 cells [12]) [µM]	podl_path_minbmd PoD (HepG2 cells [12]) [µM]	Specific binding ([13]; IPP screening at 100 uM) [%]	further results
CCOC(=O)c1ccc(N)cc1 [Benzocaine, Ethyl 4-aminobenzoate]	0.8705	19.4739	6	3.6	15.0	103.552	413.121	7799.2	36.2	-9.1	2.0	-0.8	36.7	10.5	47.784	9.489	242.367	11.5	Risk Classification ([11]; Dermal 20% in Gel): High risk; risk ([11]; Oral, 22mg/kg is the safety dose, Solution, Exp1): 1; adverse event reports related to methaemaglobinemia (human): Of the 218 adverse event reports identified by Moore et al, 136 were related to methaemaglobinemia with 2 cases resulting in deaths and 107 resulting in serious events.
N#CC(CCc1ccc(Cl)cc1)(Cn1cncn1)c1ccccc1 (centres unmarked) [Fenbuconazole, 4-(4-Chlorophenyl)-2-phenyl-2-[(1H-1,2,4-triazol-1-yl)methyl]butanenitrile]	1.305	15.4204	2.86	–	–	0.6247	4.705	10900	–	–	–	–	2	–	2.477	0.5034	16.5577	–	Specific binding ([2]; IPP screening at 10 uM): 3.0%; IPP screening %, Specific binding (Tubulin (r); 10 uM): -20.0%; Specific binding ([4]; IPP screening at 10 uM): 34.0%; Specific binding ([5]; IPP screening at 10 uM): 3.5%; IPP screening %, Specific binding [14]: 79.9%; IPP screening %, Coactivator recruitment ([6]; 10 uM): 2.0%; Specific binding ([7]; IPP screening at 10 uM, control veratridine): 100.8%; Specific binding ([9]; IPP screening at 10 uM, control nitrendipine): 97.8%; PoD (NOAEL) (dog): 0.38 mg/kg bw/day; Risk Classification ([11]; Oral, residue, 0.006 mg/kg bw/day): Low risk; Risk Classification ([11]; Oral, residue, 73% of 0.006 mg/kg bw/day): Low risk; risk ([11]; Oral, 73% ADI of 0.006 mg/kg bw/day, Food residue, Exp3): 0; risk ([11]; Oral, ADI 0.006 mg/kg bw/day, Food residue, Exp2): 0; Specific binding ([13]; IPP screening at 10 uM): 38.6%
COc1ccc(Cl)cc1C(=O)NCCc1ccc(S(=O)(=O)NC(=O)NC2CCCCC2)cc1 [Glybenclamide, 5-Chloro-N-(2-{4-[(cyclohexylcarbamoyl)sulfamoyl]phenyl}ethyl)-2-methoxybenzamide]	1.409	34.7309	8.1	3.6	27.0	0.07298	22.5491	14600	-67.7	13.1	2.0	22.5	–	18.0	24.3128	5.521	29.9584	10.7	Intrinsic Liver Clearance [15]: 973.605 L/h; Reported AUC0-t [16, 20]: 181 ng·h/mL; Reported cmax [16, 20]: 0.028 µg/mL; Reported tmax [16, 20]: 2.93 h; Reported AUC0-t [16, 21]: 355.9 ng·h/mL; Reported cmax [16, 21]: 0.1283 µg/mL; Reported tmax [16, 21]: 1.5927 h; Reported AUC0-t [16, 22]: 229.5 ng·h/mL; Reported cmax [16, 22]: 0.072 µg/mL; Reported tmax [16, 22]: 1.5 h; Reported AUC0-t [16, 23]: 1115.8 ng·h/mL; Reported cmax [16, 23]: 0.2682 µg/mL; Reported tmax [16, 23]: 3 h
O=C(O)c1ccc2c(c1)C(=O)OC2=O [Trimellitic-anhydride]	–	–	–	–	–	–	–	–	–	–	–	–	–	–	–	–	–	–	Fup [17]: 19.7%; Aqueous Solubility [18]: 1040 µg/mL
